≈ marks a conversion by molar mass, not a printed value.
Key:
Assay type in all cases: cell-based
[1] = tested on: U-937 (DSM ACC 5), human histiocytic lymphoma; experiment: Growth inhibition, WST-1 reduction in microtiter plates; settings: 120 h, U-937, incubation period of 5 days, read-out: IC50 K-562/U-937 leukemia
[2] = tested on: SK-OV-3 (ATCC HTB-77), human ovary adenocarcinoma; settings: 120 h, SK-OV-3, incubation period of 5 days, MTT
[3] = tested on: PC-3 (ATCC CRL 1435), human prostate adenocarcinoma; settings: 120 h, PC-3, incubation period of 5 days, MTT
[4] = tested on: KB-3.1 (DSM ACC 158), human cervix carcinoma; settings: KB 3-1, 120 h, KB-3.1, incubation period of 5 days, MTT
[5] = tested on: K-562 (ATCC CCL-243), human chronic myelogenous leukemia; experiment: Growth inhibition, WST-1 reduction in microtiter plates; settings: K562, 120 h, K-562, incubation period of 5 days, read-out: IC50 K-562/U-937 leukemia
[6] = tested on: A-549 (DSM ACC 107), human lung carcinoma; settings: A549, 120 h, A-549, incubation period of 5 days, MTT

Row | SMILES | IC50 [1] | IC50 [2] | IC50 [3] | IC50 [4] | IC50 [5] | IC50 [6]
1 | C=Cc1nc(/C=C(\C)[C@@H]2C[C@@H]3O[C@@H]3CCC[C@H](C)[C@H](O)[C@@H](C)C(=O)C(C)(C)[C@@H](O)CC(=O)O2)cs1 [20-vinyl-epo A, [1S-[1R*,3R*(E),7R*,10S*,11R*,12R*,16S*]]-3-[2-(2-Ethenyl-4-thiazolyl)-1-methylethenyl]-7,11-dihydroxy-8,8,10,12-tetramethyl-4,17-dioxabicyclo[14.1. 0]heptadecane-5,9-dione] | 1.5 ng/mL (≈ 2.97 nM) | 1 ng/mL (≈ 1.98 nM) | 0.4 ng/mL (≈ 0.791 nM) | 3 ng/mL (≈ 5.93 nM) | – | –
2 | C/C(=C\c1csc(CN)n1)[C@@H]1C[C@@H]2O[C@@H]2CCC[C@H](C)[C@H](O)[C@@H](C)C(=O)C(C)(C)[C@@H](O)CC(=O)O1 [21-amino-epo A] | 3 ng/mL (≈ 5.9 nM) | 4 ng/mL (≈ 7.86 nM) | 3 ng/mL (≈ 5.9 nM) | 4 ng/mL (≈ 7.86 nM) | – | –
3 | C/C(=C\c1csc(CN)n1)[C@@H]1C[C@@H]2O[C@]2(C)CCC[C@H](C)[C@H](O)[C@@H](C)C(=O)C(C)(C)[C@@H](O)CC(=O)O1 [21-amino-epo B, [1S-[1R*,3R*(E),7R*,10S*,11R*,12R*,16S*]]-3-[2-[2-(Aminomethyl)-4-thiazolyl]-1-methylethenyl]-7,11-dihydroxy-8,8,10,12,16-pentamethyl-4,17-dioxabicyclo[14.1.0]heptadecane-5,9-dione] | – | – | 1.5 ng/mL (≈ 2.87 nM) | 0.4 ng/mL (≈ 0.765 nM) | – | –
4 | C/C(=C\c1csc(CN=[N+]=[N-])n1)[C@@H]1C[C@@H]2O[C@]2(C)CCC[C@H](C)[C@H](O)[C@@H](C)C(=O)C(C)(C)[C@@H](O)CC(=O)O1 [21-azido-epo B, [1S-[1R*,3R* (E),7R*, 10S*,11R*,12R*,16S*]]-3-[2-[2-(Azidomethyl)-4-thiazolyl]-1-methylethenyl]-7,11-dihydroxy-8,8,10,12,16-pentamethyl-4,17-dioxabicyclo[14.1. 0]heptadecane-5,9-dione] | – | – | 0.4 ng/mL (≈ 0.729 nM) | 0.5 ng/mL (≈ 0.911 nM) | – | –
5 | C/C(=C\c1csc(CCl)n1)[C@@H]1C[C@@H]2O[C@@H]2CCC[C@H](C)[C@H](O)[C@@H](C)C(=O)C(C)(C)[C@@H](O)CC(=O)O1 [21-chloro-epo A] | – | – | – | 60 ng/mL (≈ 114 nM) | 12 ng/mL (≈ 22.7 nM) | 10 ng/mL (≈ 18.9 nM)
